Assay [1] deals with Munc13-1 deficient hippocampal neurons. As to the kind of experiment: EPSC augmentation following high frequency action potential trains in Munc13-1 deficient, Munc13-2 dependent neurons. The assay is classed as cell-based, mouse.
Assay [2] has as its system hippocampal neurons. In words: β-phorbol ester induced potentiation of evoked synaptic currents in autaptic neuron cultures (patch clamp). The assay is classed as cell-based, mouse. The following applies: for effect of PKC inhibitor on β-PE induced increase/potentiation of evoked EPSCs: 3 μM inhibitor, 1 μM PDBU. The method, then:
(§1) Microisland culture preparation was performed according to Bekkers and Stevens (1991). The extracellular medium contained (mM): NaCl, 167; KCl, 2.4; HEPES, 10; glucose, 10; CaCl2, 4; MgCl2, 4 (340 mOsm, pH 7.3). Solutions were applied and recordings were performed as described in Rosenmund (1995). To examine synaptically activated currents, experiments were performed using recurrent synapses (autapses) or only single autaptic neuroeses on microisland cultures at room temperature (=24° C.). Pipette solutions included (mM): KCl, 120, or K-Gluconate, 125; HEPES, 10; EGTA, 1; MgCl2, 4.6; Na4ATP, 4; Creatinephosphate, 15; creatinephosphokinase 50 U/ml (320 mOsm, pH 7.3). Wild type and Munc13-1 deficient glutamatergic hippocampal neurons were used to study the characteristics of Munc13-1 and Munc13-1 independent synapses. For these purposes, individual neurons grown on microisland beds of glial cells (Bekkers, 1991) were employed. In this autaptic culture system, where isolated nerve cells make multiple synaptic contacts, so called autapses, with their own dendritic trees, spontaneous transmitter release, release of the readily releasable vesicle pool induced by hypertonic solutions, and action potential evoked release arise from the same synapse population and can be measured readily with patch clamp techniques. Autaptic responses were obtained after brief (1-2 ms) somatic depolarization. This induces an unclamped action potential that is followed by a postsynaptic response with a delay of 2-4 ms. Excitatory, glutamatergic and inhibitory, GABAergic synaptic currents were distinguished by their characteristic pharmacological and kinetic properties. Excitatory glutamatergic cells were mainly characterized because the differential equipment of presynaptic terminals formed by the same axon with Munc13 priming factors is not apparent in GABAergic neurons.
Design of and infection with Semliki Forest Virus was done according to published procedures (Betz, 2001; Ashery, 2000). Cells were measured 22-26 h after infection.
Routinely, cells from Munc13-1^H567K/Munc13-1^H567K mutants were analyzed 12-20 day after plating and compared to wild type control cells obtained from littermates. In some experiments we employed Munc13-1/Munc13-2 double deficient neurons as model cells to study the characteristics of the Munc13-1^H567K variant in comparison to wild type Munc13-1 following overexpression using the Semliki-Forest-Virus system. In contrast to Munc13-1 deficient glutamatergic hippocampal neurons, which still show measurable glutamate release (10% of wild type levels; Augustin, 1999b), double homozygous Munc13-1/Munc13-2 deletion mutant neurons are characterized by a complete lack of spontaneous and evoked transmitter release but can be rescued by reintroduction of Munc13 proteins. This rescue approach was persued in Munc13-1/Munc13-2 double mutant neurons instead of breeding the Munc13-1^H567K/Munc 3-1^H567K mutation into the Munc13-2 deletion mutant background because it was much faster and allowed the direct comparison of additional mutant (Betz, 2001) and wild type Munc13-1 variants in the same cultures. Autaptic responses were obtained after brief (1-2 ms) somatic depolarization. This induces an unclamped action potential that is followed by a postsynaptic response with a delay of 2-4 ms. Excitatory, glutamatergic synaptic currents were identified by their characteristic pharmacological and kinetic properties.

In assay [3] the test system is hippocampal neurons. In words: α-latrotoxin induced mEPSC/mIPSC activity. In kind it is cell-based, mouse. As to the method: as §1
Given that neither action potentials nor hypertonic stimuli successfully evoked synaptic transmission and no mPSCs were detectable in Munc13-1/2 double deficient cells, it is possible that postsynaptic development is impaired in mutant cells. To test this directly, the spider toxin α-latrotoxin was used which allows to partially circumvent the need for priming factors in vesicular release (Augustin, 1999b). […] The average amplitude of these events was 22.7±2.4 pA (FIG. 5B). Both, mEPSC frequency and amplitude values are similar to wild type values (not shown).

Assay [4] deals with T1, Calmodulin (Rattus norvegicus, UniProt P0DP29).
T1 construct: from tissue; host or cells: rat brain synaptosomes, extracted with 1% Igepal
As to the kind of experiment: Cosedimentation of Calmodulin from rat brain synaptosome extract with GST fusion proteins. The assay is classed as binding. The following applies: for Calmodulin binding in cosedimentation: 15 μg fusion protein, 3 mM Ca. The method, then:
GST fusion proteins containing the Calmodulin binding sites of rat Munc13-1 and ubMunc13-2 as well as GST alone were expressed in bacteria, purified and adsorbed onto glutathione beads in equal amounts for subsequent use in cosedimentation assays with rat brain synaptosome extract. Proteins that bound to the immobilized GST fusion proteins were analyzed by SDS-PAGE and immunoblotting with a specific Calmodulin antibody. Calmodulin binds specifically to wt GST-Munc13-1 (445-567) and GST-ubMunc13-2 (372-494). Calmodulin binding is completely abolished by the point mutations in the conserved tryptophanes (Position 1 in the alignment figure x).
Such a tool is a point mutation in a Munc13 protein that abolishes Calmodulin binding. On basis of the evolutionarily conservation of the tryptophane residues (FIG. 22), and since these hydrophobic residues make contact to Calmodulin, we created expression constructs that contain W464R mutation in case of Munc13-1 and a W387R mutation in case of ubMunc13-2. The effect of these mutations on Calmodulin binding was determined in cosedimentation experiments (FIG. 24). GST-tagged fragments of Munc13-1 (aa 445-567) or ubMunc13-2 (aa 372494) were expressed in bacteria and purified according to standard protocols. 15 μg of each expressed fusion protein were used to test for Calmodulin binding from 2 ml of a rat brain synaptosome extract. Rat brain synaptosomes were extracted with Igepal (1%) at a protein concentration of 2 mg/ml in a buffer containing Tris 50 mM pH 8, NaCl 150 mM, EGTA 1 mM and a cocktail of protease inhibitors. The cosedimentation experiment was performed as described prebviously (Betz, Neuron 30 […] 183-196).

For assay [5], the target named is Calmodulin (Homo sapiens, UniProt P0DP23). In words: Tryptophane fluorescence emission of peptides as reporter for Calmodulin binding. The following applies: 10 μM peptide; for binding of Ca^2+/Calmodulin: excess calcium. The method, then: FIG. 23: Tryptophane fluorescence emission spectra of peptides reflecting the Calmodulin binding site of rat Munc13-1 and ubMunc13-2. 10 μM of each peptide were measured in NH4Acetate 0.25 M, 1 mM EGTA. Excitation was at 290 nm.
The Excitation shutter was adjusted to 1 nm bandwith, the emission shutter to 8 nm bandwidth. Pathlenght was 3 mm. All measurements were carried out at room temperature. The exact sequences of each peptide are given in the text. […] In case of the Munc13-1 peptide, Calcium independent binding is also observed, while the binding of Munc13-2 peptides strictly requires Ca2+ for binding.
The tryptophane fluorescence of the peptides was used as a reporter for Calmodulin binding in an experimental setup that was essentially identical to the experiments described elsewhere. (O'Neil et al.). Excitation of 10 μM solutions of the peptides in 0.25 M NH4Acetate pH 8 and 1 mM EGTA at 290 nm (bandwidth 1 nm) produced a maximum in the emission (bandwidth 8 nm) of both peptides at 355 nm. […] The same experiment was performed with the peptide derived of ubMunc13-2. […] In view of the evolutionarily conservation of the motif, other members of the protein family are likely to be Calmodulin targets, too.

Setting [6] is: cocktail of phosphatase inhibitors: cypermethrin 1 nM, calyculin A 10 μM, cyclosporine A 1 μM.
[7] abbreviates: 1 nM, Munc13-1/2 double deficient neurons.

Entries after “also recorded” stand apart in the source; their conditions may differ.

Turning to `CC(=O)OCOC(=O)CN(CCOCCOCCN(CC(=O)OCOC(C)=O)CC(=O)OCOC(C)=O)CC(=O)OCOC(C)=O` [EGTA-AM], the EPSC augmentation in assay [1] (10 Hz train, pretreatment 50 μM, 20 min) was found to be 2.0±0.4 fold. Further, the “maximal EPSC augmentation” value in assay [1] (40 Hz train, pretreatment 50 μM, 20 min) is on record as 11.0±1.5 fold. Moreover, in assay [1] (frequencies below 40 Hz, pretreatment 50 μM, 20 min), the “augmentation in frequency-augmentation profile” value was “strongly reduced”. As for `COc1ccc2c(c1)c(C1=C(c3c[nH]c4ccccc34)C(=O)NC1=O)cn2CCCN(C)C` [GÖ 6983], in the assay on hippocampal neurons [2] (1 μM PDBU after preincubation for 2 min and in the presence of 3 μM GÖ 6983, wild type neurons), the “β-PE induced increase in evoked EPSCs” value is given as 150±6 % of baseline values. Further, the “effect of PKC inhibitor on β-PE induced increase/potentiation of evoked EPSCs” value in the assay on hippocampal neurons [2] (wild type neurons) was “had no effect”. For the compound `NS(=O)(=O)c1cccc2c1c([N+](=O)[O-])cc1nc(O)c(O)nc12` [NBQX], the “effect on α-latrotoxin induced mEPSC signals” value with hippocampal neurons [3] (Munc13-2 deficient and Munc13-1/2 double deficient neurons) is “blocked”.

For `CN(C)CCCn1cc(C2=C(c3c[nH]c4ccccc34)C(=O)NC2=O)c2ccccc21` [bisindolylmaleimide I], the “potentiation of evoked EPSCs by 1 μM PDBU after bisindolylmaleimide I pretreatment” value with hippocampal neurons [2] was 73±8.3%. The “effect of PKC inhibitor on β-PE induced increase/potentiation of evoked EPSCs” value in the assay on hippocampal neurons [2] (wild type neurons) is listed as “does not prevent”. Further, the “reduction of evoked EPSC responses (rundown)” value in the assay on hippocampal neurons [2] (3 μM, four minute application period, wild type neurons) came out at 41±11%. On to `COC[C@@H]([C@H](O)[C@H](O)C(=O)NCC[C@H](C)c1nc(/C=C/C[C@@H]2O[C@]3(C[C@@H](O)[C@@H]2C)O[C@H]([C@H](C[C@H](O)[C@H](C)[C@H](O)[C@H](C)/C=C(C)/C(C)=C/C=C/C(C)=C\C#N)OC)[C@H](OP(=O)(O)O)C3(C)C)co1)N(C)C` [calyculin A], for which the effect on augmentation result is “did not alter augmentation” in assay [1] (setting [6]) and “ineffective in blocking augmentation” in assay [1] (cocktail of phosphatase inhibitors: cypermethrin 1 nM, calyculin A 10 μM, cyclosporine A 1 μM, listed as calyculinA). Consider `CC1(C)C(C=C(Cl)Cl)C1C(=O)OC(C#N)c1cccc(Oc2ccccc2)c1` (stereo not drawn) [cypermethrin], for which, in assay [1] (setting [6]), the effect on augmentation entry was “ineffective in blocking augmentation; also recorded: did not alter augmentation”. For the compound `C/C1=C/C(=O)O[C@@H]2C[C@@H](CC[C@H](C)/C=C\CC1)O[C@@](O)([C@@H]1CSC(=O)N1)C2` [latrunculin B], the effect on augmentation entry in assay [1] (10 μM) is given as “ineffective in blocking augmentation; also recorded: failed to affect augmentation”.

On to `C=C1[C@@H](O)[C@@H]2O[C@]3(CC[C@H](/C=C/[C@@H](C)[C@@H]4CC(C)=C[C@@]5(O[C@H](C[C@@](C)(O)C(=O)O)CC[C@H]5O)O4)O3)CC[C@H]2O[C@@H]1[C@@H](O)C[C@H](C)[C@H]1O[C@@]2(CCCCO2)CC[C@H]1C` [okadaic acid], for which the effect on augmentation entry in assay [1] (1 μM, alone) is on record as “unable to block augmentation; also recorded: did not alter augmentation”. For the compound `CN[C@@H]1C[C@H]2O[C@@](C)([C@@H]1OC)n1c3ccccc3c3c4c(c5c6ccccc6n2c5c31)C(=O)NC4` [staurosporine], the effect on augmentation result in assay [1] (100 nM) is reported as “failed to suppress augmentation”. On to “GSTMunc13-1 (aa 445-567): GST-tagged fragment of rat Munc13-1 (aa 445-567) containing the Calmodulin binding site, expressed in bacteria”, for which, in the assay with Calmodulin [4], the “calcium dependence of Calmodulin binding in cosedimentation” value was “partially independent of Ca^2+” and the “Calmodulin binding in cosedimentation” value is listed as “robustly bound”. Turning to “GSTubMunc13-2 (aa 372-494): GST-tagged fragment of rat ubMunc13-2 (aa 372-494) containing the Calmodulin binding site, expressed in bacteria”, in the assay with Calmodulin [4], the “Calmodulin binding in cosedimentation” value is given as “robustly bound”. Turning to “cqarahwfravtkvrlqlqeis (CQARAHWFRAVTKVRLQLQEIS) [peptide derived of ubMunc13-2]”, in the assay with Calmodulin [5], the “calcium dependence of Calmodulin binding” value is “absolutely dependent on the presence of calcium” and the “binding of Ca^2+/Calmodulin” value is listed as “bound”.

“crakanwlrafnkvrmqlqear (CRAKANWLRAFNKVRMQLQEAR) [Munc13-1 derived peptide]”: in the assay with Calmodulin [5], the “calcium dependence of Calmodulin binding” value is given as “partially Ca2+ independent binding” and the “binding of Ca^2+/Calmodulin” value was “tighter binding”. Besides, in the assay with Calmodulin [5] (equimolar Apocalmodulin, 1 mM EGTA), the “emission spectrum change on addition of Apocalmodulin (Calcium-free Calmodulin)” value was “pronounced blue shift and slight intensity increase”. α-latrotoxin: in the assay with hippocampal neurons [3] (setting [7]), the mEPSC amplitude is 25.6±2.6 pA and the mEPSC-like event frequency was found to be 0.074±0.024 Hz. For the same compound, the “average mEPSC amplitude” value with hippocampal neurons [3] (1 nM, Munc13-2 single mutant control neurons) turned out to be 22.7±2.4 pA. The same compound gave a mEPSC frequency with hippocampal neurons [3] (five minutes following 60 s application of 1 nM, Munc13-2 single mutant control neurons) of 23.4±3.9 Hz.

(Values after patent publication US20060008800A1, “Unc-13 in the modulation of neurotransmission and secretion events” (priority 2002, published 2006).)
